Drawing on US20180148418A1, “AMIDO-SUBSTITUTED CYCLOHEXANE DERIVATIVES” (Bayer Pharma Aktiengesellschaft, priority 2015, published 2018), this text covers IC50 for 21 compounds.

Assay [1] deals with HEK293 cells cotransfected with the FOP control vector. In words: HEK293 FOP assay (control reporter with non-functional TCF elements). The class given is cell-based. Particulars: Homo sapiens, 16 hours. A digest of the protocol:
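Stable HEK293 line carrying FOP control reporter (randomized non-functional TCF sites, with pcDNA3), Geneticin-selected, plated 24 h before assay. Stimulated with recombinant human Wnt-3a (2500-5 ng/ml) and compounds 50 μM–15 nM (3.16-fold steps) in CAFTY buffer pH 7.4 with 2 mM Ca2+, 0.01% BSA, run parallel to TOP line.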

For the next assay, the target named is T1, TNKS1 (Homo sapiens, UniProt O95271).
T1 construct: purchased BPS Bioscience, San Diego, USA 80579 (TNKS1 Histone Ribosylation Assay Kit)
T1 sequence (O95271 1-1327): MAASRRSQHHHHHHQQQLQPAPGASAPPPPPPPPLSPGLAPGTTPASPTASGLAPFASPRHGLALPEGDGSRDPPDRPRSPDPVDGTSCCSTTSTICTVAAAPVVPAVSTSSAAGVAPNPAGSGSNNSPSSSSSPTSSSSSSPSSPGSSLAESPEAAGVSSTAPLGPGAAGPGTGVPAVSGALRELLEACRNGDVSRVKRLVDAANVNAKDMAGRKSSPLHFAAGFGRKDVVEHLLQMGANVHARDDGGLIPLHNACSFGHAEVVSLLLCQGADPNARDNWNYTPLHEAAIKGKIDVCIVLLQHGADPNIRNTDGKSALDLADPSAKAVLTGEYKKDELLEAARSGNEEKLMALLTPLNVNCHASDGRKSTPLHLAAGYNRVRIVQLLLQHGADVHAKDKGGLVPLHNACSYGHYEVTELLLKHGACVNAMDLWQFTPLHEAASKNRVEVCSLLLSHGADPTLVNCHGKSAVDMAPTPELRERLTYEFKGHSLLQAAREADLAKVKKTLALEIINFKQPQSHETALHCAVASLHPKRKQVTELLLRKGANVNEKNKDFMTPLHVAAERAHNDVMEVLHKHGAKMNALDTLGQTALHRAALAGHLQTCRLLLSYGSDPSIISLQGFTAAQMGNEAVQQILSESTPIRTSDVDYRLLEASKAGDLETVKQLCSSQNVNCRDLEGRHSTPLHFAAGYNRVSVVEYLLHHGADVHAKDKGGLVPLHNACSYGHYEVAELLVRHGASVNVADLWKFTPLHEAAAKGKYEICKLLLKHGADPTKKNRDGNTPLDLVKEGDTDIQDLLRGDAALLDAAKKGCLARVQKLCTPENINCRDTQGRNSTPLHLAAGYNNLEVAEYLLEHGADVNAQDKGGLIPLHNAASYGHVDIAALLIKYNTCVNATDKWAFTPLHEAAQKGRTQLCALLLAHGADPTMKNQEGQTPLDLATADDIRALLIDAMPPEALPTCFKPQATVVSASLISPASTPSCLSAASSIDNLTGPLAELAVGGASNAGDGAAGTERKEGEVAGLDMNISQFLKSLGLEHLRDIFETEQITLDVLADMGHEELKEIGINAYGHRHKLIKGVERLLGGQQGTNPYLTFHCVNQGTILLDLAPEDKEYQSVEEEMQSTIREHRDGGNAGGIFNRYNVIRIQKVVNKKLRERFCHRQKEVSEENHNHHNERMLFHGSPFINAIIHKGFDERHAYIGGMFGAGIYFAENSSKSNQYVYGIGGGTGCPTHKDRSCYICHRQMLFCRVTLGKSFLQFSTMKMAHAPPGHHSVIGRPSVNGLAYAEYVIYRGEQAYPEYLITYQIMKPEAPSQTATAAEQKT
In words: TNKS1 Assay B (auto-parsylation, [3H]-NAD+ SPA). The class given is biochemical. The settings on record: 6 nM TNKS1, auto-parsylation, over night at room temperature.

Counter-ions that a name gives are not always drawn.

As for `CNC(=O)c1nc[nH]c1C(=O)N[C@H]1CC[C@H](C(=O)N(C)c2ccc(F)cc2)CC1` [Example 172, N^5-{trans-4-[(4-fluorophenyl)(methyl)carbamoyl]cyclohexyl}-N^4-methyl-1H-imidazole-4,5-dicarboxamide], the 50% inhibitory concentration (IC50) in assay [1] is at least 50000 nM; on TNKS1 it was 980 nM.
`CNC(=O)c1nc[nH]c1C(=O)N[C@H]1CC[C@H](C(=O)N(C)c2ccccc2)CC1` [Example 171, N^4-methyl-N^5-{trans-4-[methyl(phenyl)carbamoyl]cyclohexyl}-1H-imidazole-4,5-dicarboxamide]: the figures for the half-inhibitory concentration (IC50) (in assay [1]; against TNKS1) were at least 50000 nM and 400 nM, respectively.
In the case of `CCNC(=O)c1nc[nH]c1C(=O)N[C@H]1CC[C@@]2(CCN(c3cc(F)c(F)cc3Cl)C2=O)CC1` [Example 197, N^5-[(trans)-2-(2-chloro-4,5-difluorophenyl)-1-oxo-2-azaspiro[4.5]dec-8-yl]-N^4-ethyl-1H-imidazole-4,5-dicarboxamide], the IC50 in assay [1] is 19000 nM; on TNKS1, 4.5 nM.
`CNC(=O)c1[nH]cnc1C(=O)N[C@H]1CC[C@@]2(CCN(c3ccc(F)cc3)C2=O)CC1` [Example 212, N^4-[(trans)-2-(4-fluorophenyl)-1-oxo-2-azaspiro[4.5]dec-8-yl]-N^5-methyl-1H-imidazole-4,5-dicarboxamide]: the IC50 in assay [1] was 38000 nM; against TNKS1, 560 nM.
Consider `O=C(NCCN1CCOCC1)c1nc[nH]c1C(=O)N[C@H]1CC[C@H](C(=O)Nc2ccc(F)cc2Cl)CC1` [Example 13, N^5-{trans-4-[(2-chloro-4-fluorophenyl)carbamoyl]cyclohexyl}-N^4-[2-(morpholin-4-yl)ethyl]-1H-imidazole-4,5-dicarboxamide], for which the IC50 in assay [1] is at least 50000 nM; at TNKS1, 10 nM.
In the same order, the values of `CNC(=O)c1nc[nH]c1C(=O)N[C@H]1CC[C@H](C(=O)Nc2cc(C(C)(C)O)ccc2Cl)CC1` [Example 170, N^5-(trans-4-{[2-chloro-5-(2-hydroxypropan-2-yl)phenyl]carbamoyl}cyclohexyl)-N^4-methyl-1H-imidazole-4,5-dicarboxamide] are at least 50000 nM and 2400 nM.
Take `CN1CC(NC(=O)c2nc[nH]c2C(=O)N[C@H]2CC[C@@]3(CCN(c4ccc(F)cc4Cl)C3=O)CC2)C1` [Example 187, N^5-[(trans)-2-(2-chloro-4-fluorophenyl)-1-oxo-2-azaspiro[4.5]dec-8-yl]-N^4-(1-methylazetidin-3-yl)-1H-imidazole-4,5-dicarboxamide]: the half-inhibitory concentration (IC50) in assay [1] was at least 50000 nM; against TNKS1, 12 nM.
Take `O=C(NC1CC1)c1nc[nH]c1C(=O)N[C@H]1CC[C@H](C(=O)Nc2ccc(F)cc2Cl)CC1` [Example 17, N^5-{trans-4-[(2-chloro-4-fluorophenyl)carbamoyl]cyclohexyl}-N^4-cyclopropyl-1H-imidazole-4,5-dicarboxamide]: the values for the IC50 (in assay [1]; against TNKS1) were at least 50000 nM and 84 nM, respectively.
In the case of `O=C(N[C@H]1CC[C@@]2(CCN(c3ccc(F)cc3Cl)C2=O)CC1)c1[nH]cnc1C(=O)N1CCN(CC(F)(F)F)CC1` [Example 167, N-[(trans)-2-(2-chloro-4-fluorophenyl)-1-oxo-2-azaspiro[4.5]dec-8-yl]-4-{[4-(2,2,2-trifluoroethyl)piperazin-1-yl]carbonyl}-1H-imidazole-5-carboxamide], the values for the concentration for half-maximal inhibition (IC50) (in assay [1]; against TNKS1) were at least 50000 nM and 660 nM, respectively.
Regarding `O=C(N[C@H]1CC[C@@]2(CCN(c3ccc(F)cc3Cl)C2=O)CC1)c1cnn2c(C(F)(F)F)ccnc12` [Example 233, N-[(trans)-2-(2-chloro-4-fluorophenyl)-1-oxo-2-azaspiro[4.5]dec-8-yl]-7-(trifluoromethyl)pyrazolo[1,5-a]pyrimidine-3-carboxamide], the half-inhibitory concentration (IC50) is at least 50000 nM in assay [1] and 71 nM against TNKS1.
Turning to `CC(C)NC(=O)c1nc[nH]c1C(=O)N[C@H]1CC[C@@]2(CCN(c3cccc(Cl)c3)C2=O)CC1` [Example 278, N^5-[(trans)-2-(3-chlorophenyl)-1-oxo-2-azaspiro[4.5]dec-8-yl]-N^4-(propan-2-yl)-1H-imidazole-4,5-dicarboxamide], the half-inhibitory concentration (IC50) in assay [1] is at least 50000 nM; at TNKS1 it was 450 nM.
Turning to `O=C(N[C@H]1CC[C@@]2(CCN(c3ccc(F)cc3)C2=O)CC1)c1cnn2cccnc12` [Example 209, N-[(trans)-2-(4-fluorophenyl)-1-oxo-2-azaspiro[4.5]dec-8-yl]pyrazolo[1,5-a]pyrimidine-3-carboxamide], the IC50 in assay [1] is at least 50000 nM; against TNKS1 it was 1200 nM.
Turning to `CNC(=O)c1nc[nH]c1C(=O)N[C@H]1CC[C@]2(CCN(c3ccc(F)cc3Cl)C2=O)CC1` [Example 182, N^5-[(cis)-2-(2-chloro-4-fluorophenyl)-1-oxo-2-azaspiro[4.5]dec-8-yl]-N^4-methyl-1H-imidazole-4,5-dicarboxamide], the IC50 in assay [1] is at least 50000 nM; at TNKS1, 2200 nM.
Regarding `Cc1nn2cccnc2c1C(=O)N[C@H]1CC[C@@]2(CCN(c3ccc(F)cc3Cl)C2=O)CC1` [Example 216, N-[(trans)-2-(2-chloro-4-fluorophenyl)-1-oxo-2-azaspiro[4.5]dec-8-yl]-2-methylpyrazolo[1,5-a]pyrimidine-3-carboxamide], the concentration for half-maximal inhibition (IC50) in assay [1] was at least 50000 nM; on TNKS1, 570 nM.
For `O=C(N[C@H]1CC[C@@]2(CCN(c3ccc(F)cc3Cl)C2=O)CC1)c1cnn2ccc(N3CCNCC3)nc12` [Example 226, N-[(trans)-2-(2-chloro-4-fluorophenyl)-1-oxo-2-azaspiro[4.5]dec-8-yl]-5-(piperazin-1-yl)pyrazolo[1,5-a]pyrimidine-3-carboxamide hydrochloric acid salt], the IC50 in assay [1] was at least 500 nM; against TNKS1 it was 8.2 nM.
With `O=C(N[C@H]1CC[C@@]2(CCN(c3ccccc3Cl)C2=O)CC1)c1cnn2cccnc12` [Example 256, N-[(trans)-2-(2-chlorophenyl)-1-oxo-2-azaspiro[4.5]dec-8-yl]pyrazolo[1,5-a]pyrimidine-3-carboxamide], the IC50 in assay [1] is at least 50000 nM; at TNKS1 it was 12 nM.
Consider `O=C(N[C@H]1CC[C@@]2(CCN(c3ccccc3Cl)C2=O)CC1)c1cnc2cccnn12` [Example 271, N-[(trans)-2-(2-chlorophenyl)-1-oxo-2-azaspiro[4.5]dec-8-yl]imidazo[1,2-b]pyridazine-3-carboxamide], for which the IC50 in assay [1] was at least 50000 nM; at TNKS1, 15 nM.
In the same order, the values of `O=C(N[C@H]1CC[C@@]2(CCN(c3ccc(F)cc3Cl)C2=O)CC1)c1cnn2cc(CCO)cnc12` [Example 214, N-[(trans)-2-(2-chloro-4-fluorophenyl)-1-oxo-2-azaspiro[4.5]dec-8-yl]-6-(2-hydroxyethyl)pyrazolo[1,5-a]pyrimidine-3-carboxamide] are at least 50000 nM and 12 nM.
In the same order, the values of `CNC(=O)c1[nH]cnc1C(=O)N[C@H]1CC[C@@](C)(C(=O)Nc2ccc(F)cc2Cl)CC1` [Example 181, N^4-{cis-4-[(2-chloro-4-fluorophenyl)carbamoyl]-4-methylcyclohexyl}-N^5-methyl-1H-imidazole-4,5-dicarboxamide] are 24000 nM and over 10000 nM.
Turning to `O=C(NCC(F)(F)F)c1nc[nH]c1C(=O)N[C@H]1CC[C@@]2(CCN(c3cccc(Cl)c3)C2=O)CC1` [Example 281, N^5-[(trans)-2-(3-chlorophenyl)-1-oxo-2-azaspiro[4.5]dec-8-yl]-N^4-(2,2,2-trifluoroethyl)-1H-imidazole-4,5-dicarboxamide], the figures for the 50% inhibitory concentration (IC50) (in assay [1]; against TNKS1) were at least 50000 nM and 330 nM, respectively.
In the same order, the values of `COCCNC(=O)c1nc[nH]c1C(=O)N[C@H]1CC[C@@]2(CCN(c3cccc(Cl)c3)C2=O)CC1` [Example 282, N^5-[(trans)-2-(3-chlorophenyl)-1-oxo-2-azaspiro[4.5]dec-8-yl]-N^4-(2-methoxyethyl)-1H-imidazole-4,5-dicarboxamide] are 8000 nM and 310 nM.

For orientation: IC50 means the midpoint of a concentration-inhibition curve. High values mean lower potency, low ones higher potency.
